The subject of assay [1] is trigeminal nerve ganglion function. In words: Intra-arterial lidocaine in the middle meningeal artery territory in patients with refractory trigeminal neuralgia (blink reflex monitoring, clinical outcome). The assay is classed as in vivo. From the text:
Trigeminal neuralgia consists of unilateral, brief/paroxysmal, or continuous pain in one or more divisions of the trigeminal nerve. The pain is secondary to hyperactivity or spontaneous impulse generation within the nerves due to extrinsic compression or intrinsic neural dysfunction. In the experiment, the intra-arterial delivery of medication for modulating trigeminal nerve ganglion function in patients with refractory trigeminal neuralgia was examined. […] Clinical outcome assessment included a 10-point numeric rating, 4-point severity grading, and the pain-free time interval pre- and post-treatment.

Assay [2] has as its system patients suffering from severe headaches.

Read-outs that look alike come from different tables or passages of the source.

For `CCN(CC)CC(=O)Nc1c(C)cccc1C` [lidocaine], the symptoms at follow-up entry in assay [1] (all three patients, 1 month later) is listed as “returned to baseline severity”. Besides, the facial hyperalgesia result in assay [1] (all three patients, all dermatomes) was “improvement in facial hyperalgesia”. Besides, the “pain severity (10-point numeric rating, 4-point severity grading)” value in assay [1] (second and third patients) is listed as “improvement in pain severity on all scales”. Also, the pain-free interval in assay [1] (second patient) is reported as 5 days; in assay [1] (third patient), 3 days. In addition, the “self-reported headache intensity (Visual Analog scale)” value is recorded as 5 in assay [2] (first patient, after 5 min of lidocaine injection (40 mg), pre-procedure intensity 10) and 4 in assay [2] (second patient, after 5 min of lidocaine injection, pre-procedure intensity 7).

Source of the values: patent publication US11931485B2, “Implantable sustained release device and a method of use therefor in the treatment of brain disorders” (priority 2021, dated 2024).
